# Data from patent publication US20090181963A1, “3H-[1,2,3]TRIAZOLO[4,5-D]PYRIMIDINE COMPOUNDS, THEIR USE AS mTOR KINASE AND PI3 KINASE INHIBITORS, AND THEIR [sequence]” (Wyeth, priority 2008, published 2009).
# Columns and labels:
# PI3 Kinase γ = PI3 Kinase γ (Homo sapiens, UniProt P48736); experiment: Fluorescence polarization assay for PI3K (PI3 Kinase γ); assay type: biochemical; conditions: diC8-PI(4,5)P2 substrate, 25 μM ATP, one hour at 25° C.
# PI3 Kinase α = PI3 Kinase α (Homo sapiens, UniProt P42336); experiment: Fluorescence polarization assay for PI3K (PI3 Kinase α); assay type: biochemical; conditions: diC8-PI(4,5)P2 substrate, 25 μM ATP, one hour at 25° C.
# Sequence of PI3 Kinase α (P42336 whole entry): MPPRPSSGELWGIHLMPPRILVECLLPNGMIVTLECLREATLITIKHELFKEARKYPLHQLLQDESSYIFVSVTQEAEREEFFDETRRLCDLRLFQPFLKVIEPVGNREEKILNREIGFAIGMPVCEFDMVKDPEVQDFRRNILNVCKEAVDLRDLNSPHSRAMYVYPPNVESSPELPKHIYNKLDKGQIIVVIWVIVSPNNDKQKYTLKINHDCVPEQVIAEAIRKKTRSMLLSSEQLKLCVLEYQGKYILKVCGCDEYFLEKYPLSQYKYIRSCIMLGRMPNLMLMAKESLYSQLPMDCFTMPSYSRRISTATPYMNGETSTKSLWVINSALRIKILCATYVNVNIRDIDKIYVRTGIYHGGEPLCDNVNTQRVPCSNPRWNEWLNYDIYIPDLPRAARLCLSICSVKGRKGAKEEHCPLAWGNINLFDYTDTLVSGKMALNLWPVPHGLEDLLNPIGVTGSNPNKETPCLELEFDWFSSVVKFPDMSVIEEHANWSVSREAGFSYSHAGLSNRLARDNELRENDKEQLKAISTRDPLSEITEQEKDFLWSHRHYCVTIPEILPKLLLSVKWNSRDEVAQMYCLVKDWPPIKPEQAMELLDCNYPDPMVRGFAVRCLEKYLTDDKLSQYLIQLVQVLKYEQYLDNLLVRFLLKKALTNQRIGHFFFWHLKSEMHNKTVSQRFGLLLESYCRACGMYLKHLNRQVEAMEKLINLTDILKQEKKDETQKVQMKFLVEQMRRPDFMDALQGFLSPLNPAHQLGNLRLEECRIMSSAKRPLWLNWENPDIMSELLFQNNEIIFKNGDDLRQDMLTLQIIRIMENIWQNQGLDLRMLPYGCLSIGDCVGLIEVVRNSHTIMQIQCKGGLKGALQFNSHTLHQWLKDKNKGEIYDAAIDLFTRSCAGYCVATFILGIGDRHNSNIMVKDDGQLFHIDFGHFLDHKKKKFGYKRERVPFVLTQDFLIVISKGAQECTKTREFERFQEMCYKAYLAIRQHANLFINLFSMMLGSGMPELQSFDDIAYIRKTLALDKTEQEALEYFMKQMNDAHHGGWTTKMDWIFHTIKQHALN
# Sequence of PI3 Kinase α (P27986 whole entry partner): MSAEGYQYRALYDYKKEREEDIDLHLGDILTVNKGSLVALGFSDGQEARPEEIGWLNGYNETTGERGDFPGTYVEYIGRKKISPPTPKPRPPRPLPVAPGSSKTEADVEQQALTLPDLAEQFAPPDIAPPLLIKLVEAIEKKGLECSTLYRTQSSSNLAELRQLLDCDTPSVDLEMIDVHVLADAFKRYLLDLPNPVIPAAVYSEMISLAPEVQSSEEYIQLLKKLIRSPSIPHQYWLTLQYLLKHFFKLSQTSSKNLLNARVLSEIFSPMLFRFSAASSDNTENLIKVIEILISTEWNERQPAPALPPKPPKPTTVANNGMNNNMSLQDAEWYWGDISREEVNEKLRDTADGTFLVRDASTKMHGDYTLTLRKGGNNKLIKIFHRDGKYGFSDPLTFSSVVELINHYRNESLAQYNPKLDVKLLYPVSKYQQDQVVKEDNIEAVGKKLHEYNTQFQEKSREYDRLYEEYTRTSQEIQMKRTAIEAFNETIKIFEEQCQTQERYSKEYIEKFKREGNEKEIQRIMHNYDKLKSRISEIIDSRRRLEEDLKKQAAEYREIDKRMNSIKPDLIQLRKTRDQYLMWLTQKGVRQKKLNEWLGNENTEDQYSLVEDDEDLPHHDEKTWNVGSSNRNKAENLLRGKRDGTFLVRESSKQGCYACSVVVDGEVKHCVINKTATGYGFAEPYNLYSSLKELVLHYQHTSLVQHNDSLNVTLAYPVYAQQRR
# Protocol: Nunc 384 well black polypropylene fluorescent plates were used for PI3K assays. Reactions were quenched by the addition of EDTA to a final concentration of 10 μM. Final reaction volumes were 10 ml. […] Reactions were allowed to proceed for one hour at 25° C. After I hour, GST-tagged GRP1 (general receptor for phosphoinositides) PH domain fusion protein was added to a final concentration of 100 nM, and BODIPY-TMRI(1,3,4,5)P4 (Echelon) was also added to a final concentration of 5 nM. Final sample volumes were 25 μl with a final DMSO concentration of 0.8%. Assay Plates were read on PerkinElmer Envision plate readers with appropriate filters for Tamra [BODIPY-TMRI(1,3,4,5)P4]. Data obtained were used to calculate enzymatic activity and enzyme inhibition by inhibitor compounds.
# Sequence of PI3 Kinase γ (P48736 whole entry): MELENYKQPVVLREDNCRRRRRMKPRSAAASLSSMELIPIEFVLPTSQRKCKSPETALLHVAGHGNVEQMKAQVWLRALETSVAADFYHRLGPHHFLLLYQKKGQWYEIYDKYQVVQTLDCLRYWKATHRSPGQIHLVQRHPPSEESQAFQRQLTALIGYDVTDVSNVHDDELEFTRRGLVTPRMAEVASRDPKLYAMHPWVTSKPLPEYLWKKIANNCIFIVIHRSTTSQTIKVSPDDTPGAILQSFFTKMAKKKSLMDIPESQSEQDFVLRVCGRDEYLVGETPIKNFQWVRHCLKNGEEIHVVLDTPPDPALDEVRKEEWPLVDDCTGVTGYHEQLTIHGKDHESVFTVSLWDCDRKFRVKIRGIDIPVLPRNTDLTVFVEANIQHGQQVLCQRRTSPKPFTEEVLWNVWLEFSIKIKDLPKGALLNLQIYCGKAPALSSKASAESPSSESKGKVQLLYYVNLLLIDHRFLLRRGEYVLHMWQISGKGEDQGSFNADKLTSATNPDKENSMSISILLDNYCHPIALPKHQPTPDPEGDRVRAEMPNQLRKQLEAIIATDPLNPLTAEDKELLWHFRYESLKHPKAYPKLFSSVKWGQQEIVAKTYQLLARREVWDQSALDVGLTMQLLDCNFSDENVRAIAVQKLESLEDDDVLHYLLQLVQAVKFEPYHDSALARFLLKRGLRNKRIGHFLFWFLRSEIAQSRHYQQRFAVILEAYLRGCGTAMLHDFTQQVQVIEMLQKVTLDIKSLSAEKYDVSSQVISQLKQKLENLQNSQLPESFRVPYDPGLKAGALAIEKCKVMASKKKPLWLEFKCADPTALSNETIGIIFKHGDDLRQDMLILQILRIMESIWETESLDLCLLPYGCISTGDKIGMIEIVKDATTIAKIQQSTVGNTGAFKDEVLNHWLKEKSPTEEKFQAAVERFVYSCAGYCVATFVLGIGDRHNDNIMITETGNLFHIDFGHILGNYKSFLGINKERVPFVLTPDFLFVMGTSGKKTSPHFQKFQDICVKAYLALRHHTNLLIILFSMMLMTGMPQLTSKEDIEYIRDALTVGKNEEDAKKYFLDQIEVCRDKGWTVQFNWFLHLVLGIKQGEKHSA
Compound,IC50 (PI3 Kinase γ) [nM],IC50 (PI3 Kinase α) [nM]
"CCn1nnc2c(N3CCOC[C@@H]3C)nc(-c3ccc(NC(=O)Nc4ccc(OC)cc4)cc3)nc21 [Example 73, (S)-1-(4-(3-ethyl-7-(3-methylmorpholino)-3H-[1,2,3]triazolo[4,5-d]pyrimidin-5-yl)phenyl)-3-(4-methoxyphenyl)urea]",92.5,15.5
"CCn1nnc2c(N3CCOC[C@@H]3C)nc(-c3ccc(NC(=O)Nc4ccc(N5CCN(C)CC5)cc4)cc3)nc21 [Example 76, (S)-1-(4-(3-ethyl-7-(3-methylmorpholino)-3H-[1,2,3]triazolo[4,5-d]pyrimidin-5-yl)phenyl)-3-(4-(4-methylpiperazin-1-yl)phenyl)urea]",32,5
"O=C(Nc1ccncc1)Nc1ccc(-c2nc(N3CCOCC3)c3nnn(C4CC4)c3n2)cc1 [Example 78, 1-(4-(3-cyclopropyl-7-morpholino-3H-[1,2,3]triazolo[4,5-d]pyrimidin-5-yl)phenyl)-3-(pyridin-4-yl)urea]",13.5,6
"O=C(Nc1ccc(-c2nc(N3CCOCC3)c3nnn(C4CC4)c3n2)cc1)Nc1cccnc1 [Example 79, 1-(4-(3-cyclopropyl-7-morpholino-3H-[1,2,3]triazolo[4,5-d]pyrimidin-5-yl)phenyl)-3-(pyridin-3-yl)urea]",34,7
"O=C(Nc1ccc(-c2nc(N3CCOCC3)c3nnn(C4CC4)c3n2)cc1)Nc1cccs1 [Example 80, 1-(4-(3-cyclopropyl-7-morpholino-3H-[1,2,3]triazolo[4,5-d]pyrimidin-5-yl)phenyl)-3-(thiophen-2-yl)urea]",19.5,3
"CC(C)n1nnc2c(N3CCOCC3)nc(-c3ccc(N)cc3)nc21 [Example 81, 4-(3-isopropyl-7-morpholin-4-yl-3H-[1,2,3]triazolo[4,5-d]pyrimidin-5-yl)-phenylamine]",4630,1030
"CC(C)n1nnc2c(N3CCOCC3)nc(-c3ccc(NC(=O)Nc4ccncc4)cc3)nc21 [Example 82, 1-[4-(3-isopropyl-7-morpholin-4-yl-3H-[1,2,3]triazolo[4,5-d]pyrimidin-5-yl)-phenyl]-3-pyridin-4-yl-urea]",21.5,5
"CC(C)n1nnc2c(N3CCOCC3)nc(-c3ccc(NC(=O)Nc4cccnc4)cc3)nc21 [Example 83, 1-[4-(3-isopropyl-7-morpholin-4-yl-3H-[1,2,3]triazolo[4,5-d]pyrimidin-5-yl)-phenyl]-3-pyridin-3-yl-urea]",48.5,10.5
"CC(C)n1nnc2c(N3CCOCC3)nc(-c3ccc(NC(=O)Nc4ccc(N5CCOCC5)cc4)cc3)nc21 [Example 85, 1-[4-(3-Isopropyl-7-morpholin-4-yl-3H-[1,2,3]triazolo[4,5-d]pyrimidin-5-yl)-phenyl]-3-(4-morpholin-4-yl-phenyl)-urea]",78,25
"CC(C)n1nnc2c(N3CCOCC3)nc(-c3ccc(NC(=O)Nc4ccc(N(C)C)cc4)cc3)nc21 [Example 86, 1-(4-dimethylamino-phenyl)-3-[4-(3-isopropyl-7-morpholin-4-yl-3H-[1,2,3]triazolo[4,5-d]pyrimidin-5-yl)-phenyl]-urea]",69,23.5
"CC(C)n1nnc2c(N3CCOCC3)nc(-c3ccc(NC(=O)NCCN(C)C)cc3)nc21 [Example 88, 1-[2-(dimethylamino)ethyl]-3-[4-(3-isopropyl-7-morpholin-4-yl-3H-[1,2,3]triazolo[4,5-d]pyrimidin-5-yl)phenyl]urea]",197,77.5
"Cc1ccc(NC(=O)Nc2ccc(-c3nc(N4CCOCC4)c4nnn(C(C)C)c4n3)cc2)cc1 [Example 90, 1-(4-methyl-phenyl)-3-[4-(3-isopropyl-7-morpholin-4-yl-3H-[1,2,3]triazolo[4,5-d]pyrimidin-5-yl)-phenyl]-urea]",100,34.5
"CCN1CCCC1CNC(=O)Nc1ccc(-c2nc(N3CCOCC3)c3nnn(C(C)C)c3n2)cc1 (centres unmarked) [Example 92, 1-(1-ethyl-pyrrolidin-2-ylmethyl)-3-[4-(3-isopropyl-7-morpholin-4-yl-3H-[1,2,3]triazolo[4,5-d]pyrimidin-5-yl)-phenyl]-urea]",645,149
"CC(C)n1nnc2c(N3CCOCC3)nc(-c3ccc(NC(=O)Nc4cnoc4)cc3)nc21 [Example 94, 1-[4-(3-isopropyl-7-morpholin-4-yl-3H-[1,2,3]triazolo[4,5-d]pyrimidin-5-yl)-phenyl]-3-isoxazol-4-yl-urea]",132,34.5
"CC(C)(C)OC(=O)N1CCN(CCn2nnc3c(N4CCOCC4)nc(-c4cccc(O)c4)nc32)CC1 [Example 97, tert-butyl 4-{2-[5-(3-hydroxyphenyl)-7-morpholin-4-yl-3H-[1,2,3]triazolo[4,5-d]pyrimidin-3-yl]ethyl}piperazine-1-carboxylate]",4360,1020
"CCC(=O)N1CCN(CCn2nnc3c(N4CCOCC4)nc(-c4cccc(O)c4)nc32)CC1 [Example 100, 3-{7-morpholin-4-yl-3-[2-(4-propionylpiperazin-1-yl)ethyl]-3H-[1,2,3]triazolo[4,5-d]pyrimidin-5-yl}phenol]",3140,1660
"O=C(c1ccncc1)N1CCN(CCn2nnc3c(N4CCOCC4)nc(-c4cccc(O)c4)nc32)CC1 [Example 103, 3-{3-[2-(4-isonicotinoylpiperazin-1-yl)ethyl]-7-morpholin-4-yl-3H-[1,2,3]triazolo[4,5-d]pyrimidin-5-yl}phenol]",5050,987

# Further compounds by falling IC50 (PI3 Kinase γ), results first:
IC50 (PI3 Kinase γ) [nM],IC50 (PI3 Kinase α) [nM],Compound
8000,1840,"Nc1ccc(-c2nc(N3CCOCC3)c3nnn(C4CC4)c3n2)cc1 [Example 77, 4-(3-cyclopropyl-7-morpholino-3H-[1,2,3]triazolo[4,5-d]pyrimidin-5-yl)aniline]"
5750,924,"O=C(c1ccccc1)N1CCN(CCn2nnc3c(N4CCOCC4)nc(-c4cccc(O)c4)nc32)CC1 [Example 99, 3-{3-[2-(4-benzoylpiperazin-1-yl)ethyl]-7-morpholin-4-yl-3H-[1,2,3]triazolo[4,5-d]pyrimidin-5-yl}phenol]"
3550,538,"O=C(c1ccc(F)cc1)N1CCN(CCn2nnc3c(N4CCOCC4)nc(-c4cccc(O)c4)nc32)CC1 [Example 101, 3-(3-{2-[4-(4-fluorobenzoyl)piperazin-1-yl]ethyl}-7-morpholin-4-yl-3H-[1,2,3]triazolo[4,5-d]pyrimidin-5-yl)phenol]"
1920,1260,"O=C(c1ccc(F)c(F)c1)N1CCN(CCn2nnc3c(N4CCOCC4)nc(-c4cccc(O)c4)nc32)CC1 [Example 102, 3-(3-{2-[4-(3,4-difluorobenzoyl)piperazin-1-yl]ethyl}-7-morpholin-4-yl-3H-[1,2,3]triazolo[4,5-d]pyrimidin-5-yl)phenol]"
620,49.7,"CC(C)n1nnc2c(N3CCOCC3)nc(-c3ccc(NC(N)=O)cc3)nc21 [Example 96, [4-(3-isopropyl-7-morpholin-4-yl-3H-[1,2,3]triazolo[4,5-d]pyrimidin-5-yl)-phenyl]-urea]"
595,54,"Oc1cccc(-c2nc(N3CCOCC3)c3nnn(CCN4CCNCC4)c3n2)c1 [Example 98, 3-[7-morpholin-4-yl-3-(2-piperazin-1-ylethyl)-3H-[1,2,3]triazolo[4,5-d]pyrimidin-5-yl]phenol]"
409,41.5,"CNC(=O)Nc1ccc(-c2nc(N3CCOCC3)c3nnn(C(C)C)c3n2)cc1 [Example 91, 1-[4-(3-isopropyl-7-morpholin-4-yl-3H-[1,2,3]triazolo[4,5-d]pyrimidin-5-yl)-phenyl]-3-methyl-urea]"
97,9.5,"CCn1nnc2c(N3CCOC[C@@H]3C)nc(-c3ccc(NC(=O)Nc4ccc(F)cc4)cc3)nc21 [Example 74, (S)-1-(4-(3-ethyl-7-(3-methylmorpholino)-3H-[1,2,3]triazolo[4,5-d]pyrimidin-5-yl)phenyl)-3-(4-fluorophenyl)urea]"
92.5,13.5,"CCn1nnc2c(N3CCOC[C@@H]3C)nc(-c3ccc(NC(=O)Nc4ccc(C#N)cc4)cc3)nc21 [Example 75, (S)-1-(4-cyanophenyl)-3-(4-(3-ethyl-7-(3-methylmorpholino)-3H-[1,2,3]triazolo[4,5-d]pyrimidin-5-yl)phenyl)urea]"
91,33.7,"CC(C)n1nnc2c(N3CCOCC3)nc(-c3ccc(NC(=O)Nc4cc[nH]c4)cc3)nc21 [Example 95, 1-[4-(3-isopropyl-7-morpholin-4-yl-3H-[1,2,3]triazolo[4,5-d]pyrimidin-5-yl)-phenyl]-3-(1H-pyrrol-3-yl)-urea]"
69.5,13.5,"CC(C)n1nnc2c(N3CCOCC3)nc(-c3ccc(NC(=O)Nc4ccc(F)cc4)cc3)nc21 [Example 87, 1-(4-fluoro-phenyl)-3-[4-(3-isopropyl-7-morpholin-4-yl-3H-[1,2,3]triazolo[4,5-d]pyrimidin-5-yl)-phenyl]-urea]"
40,15.5,"COc1ccc(NC(=O)Nc2ccc(-c3nc(N4CCOCC4)c4nnn(C(C)C)c4n3)cc2)cc1 [Example 89, 1-(4-methoxy-phenyl)-3-[4-(3-isopropyl-7-morpholin-4-yl-3H-[1,2,3]triazolo[4,5-d]pyrimidin-5-yl)-phenyl]-urea]"
34.5,3,"CC(C)n1nnc2c(N3CCOCC3)nc(-c3ccc(NC(=O)Nc4ccc(CO)cc4)cc3)nc21 [Example 84, 1-(4-Hydroxymethyl-phenyl)-3-[4-(3-isopropyl-7-morpholin-4-yl-3H-[1,2,3]triazolo[4,5-d]pyrimidin-5-yl)-phenyl]-urea]"
18,2.5,"CC(C)n1nnc2c(N3CCOCC3)nc(-c3ccc(NC(=O)Nc4ccc(C(N)=O)cc4)cc3)nc21 [Example 93, 4-{3-[4-(3-isopropyl-7-morpholin-4-yl-3H-[1,2,3]triazolo[4,5-d]pyrimidin-5-yl)-phenyl]-ureido}-benzamide]"
